Test results: US20110130380A1, “Heteroaryl Kinase Inhibitors” (priority 2009, published 2011)
pIC50: −log10 of the molar value.

The compounds below were run against Cdk9/cyclinT1 (Homo sapiens, UniProt P50750) (assay: Cdk9/cyclinT1 IMAP Protocol (fluorescence polarization kinase assay)). Details: Cdk9_cyclinT1_IC50, Table V; generated using one of the two Cdk9/cyclinT1 assays (IMAP or Alpha Screen), not stated which; ATP 6 uM.
Cdk9/cyclinT1, sequence (P50750 whole entry): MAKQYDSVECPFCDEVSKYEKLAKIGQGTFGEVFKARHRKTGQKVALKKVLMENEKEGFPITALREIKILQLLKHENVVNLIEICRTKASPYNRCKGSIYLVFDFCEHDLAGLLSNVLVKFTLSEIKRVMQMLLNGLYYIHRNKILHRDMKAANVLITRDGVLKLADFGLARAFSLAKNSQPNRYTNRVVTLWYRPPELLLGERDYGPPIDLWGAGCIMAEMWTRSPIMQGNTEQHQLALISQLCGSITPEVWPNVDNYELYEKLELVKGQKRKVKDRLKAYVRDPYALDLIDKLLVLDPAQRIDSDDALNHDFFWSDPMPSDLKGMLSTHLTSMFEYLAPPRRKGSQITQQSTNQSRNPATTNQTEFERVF
Cdk9/cyclinT1, sequence (O60563 whole entry partner): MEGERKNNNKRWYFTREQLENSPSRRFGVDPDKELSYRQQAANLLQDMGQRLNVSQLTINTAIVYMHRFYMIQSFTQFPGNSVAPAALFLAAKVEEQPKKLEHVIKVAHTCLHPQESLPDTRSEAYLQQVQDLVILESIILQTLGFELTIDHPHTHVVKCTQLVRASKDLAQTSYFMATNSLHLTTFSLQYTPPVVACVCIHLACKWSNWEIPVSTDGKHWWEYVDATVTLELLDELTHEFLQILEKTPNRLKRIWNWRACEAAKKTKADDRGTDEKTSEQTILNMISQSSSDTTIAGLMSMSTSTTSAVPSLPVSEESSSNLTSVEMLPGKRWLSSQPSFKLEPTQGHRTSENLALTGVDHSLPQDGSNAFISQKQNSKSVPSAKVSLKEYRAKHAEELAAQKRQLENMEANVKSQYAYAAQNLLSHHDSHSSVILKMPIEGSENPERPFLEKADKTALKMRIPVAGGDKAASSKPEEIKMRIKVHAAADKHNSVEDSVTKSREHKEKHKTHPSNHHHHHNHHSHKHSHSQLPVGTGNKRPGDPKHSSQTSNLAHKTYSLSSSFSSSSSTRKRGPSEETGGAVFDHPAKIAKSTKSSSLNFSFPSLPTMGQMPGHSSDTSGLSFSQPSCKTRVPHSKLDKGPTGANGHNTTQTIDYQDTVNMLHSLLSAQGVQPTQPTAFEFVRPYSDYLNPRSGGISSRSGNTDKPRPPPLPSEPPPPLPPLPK

SMILES | pIC50
O=C(Nc1cc(-c2cccc(NCC3CCOCC3)n2)c(Cl)cn1)C1CCNCC1 [Example 7, Piperidine-4-carboxylic acid {5′-chloro-6-[(tetrahydro-pyran-4-ylmethyl)-amino]-[2,4′]bipyridinyl-2′-yl}-amide] | 7.85
O=C(Nc1cc(-c2nc(NCC3CCOCC3)ccc2Cl)c(Cl)cn1)C1CNCCOC1 (single isomer, unassigned) [Example 213] | 8.70
CO[C@H]1CNC[C@@H]1C(=O)Nc1cc(-c2nc(NCC3CCOCC3)ccc2Cl)c(Cl)cn1 [Example 150, (3S,4R)-4-Methoxy-pyrrolidine-3-carboxylic acid {3,5′-dichloro-6-[(tetrahydro-pyran-4-ylmethyl)-amino]-[2,4′]bipyridinyl-2′-yl}-amide] | > 8.10
CS(=O)(=O)N1CCC[C@@H](C(=O)Nc2cc(-c3cccc(NCC4CCOCC4)n3)c(Cl)cn2)C1 [Example 83, (R)-1-Methanesulfonyl-piperidine-3-carboxylic acid {5′-chloro-6-[(tetrahydro-pyran-4-ylmethyl)-amino]-[2,4′]bipyridinyl-2′-yl}-amide] | 6.32
O=C(Nc1cc(-c2nc(NCC3CCOCC3)ccc2F)c(Cl)cn1)C1CNCCOC1 (stereo not shown) [Example 204, [1,4]Oxazepane-6-carboxylic acid {5′-chloro-3-fluoro-6-[(tetrahydro-pyran-4-ylmethyl)-amino]-[2,4′]bipyridinyl-2′-yl}-amide] | 9.00
CN(CC1CCOCC1)c1cccc(-c2cc(NC(=O)[C@@H]3CCCNC3)ncc2Cl)n1 [Example 35, (R)-Piperidine-3-carboxylic acid {5′-chloro-6-[methyl-(tetrahydro-pyran-4-ylmethyl)-amino]-[2,4′]bipyridinyl-2′-yl}-amide] | > 8.10
O=C(Nc1cc(-c2cccc(NCc3cccc(OC(F)F)c3)n2)c(Cl)cn1)[C@@H]1CCCNC1 [Example 55, (R)-Piperidine-3-carboxylic acid [5′-chloro-6-(3-difluoromethoxy-benzylamino)-[2,4′]bipyridinyl-2′-yl]-amide] | > 8.10
CC(=O)NCCNc1cccc(-c2cc(NC(=O)[C@@H]3CCCNC3)ncc2Cl)n1 [Example 37, (R)-Piperidine-3-carboxylic acid [6-(2-acetylamino-ethylamino)-5′-chloro-[2,4′]bipyridinyl-2′-yl]-amide] | 7.30
N[C@@H]1CCC[C@H](C(=O)Nc2cc(-c3cccc(NCC4CCOCC4)n3)c(Cl)cn2)C1 (racemic) [Example 59, (1S,3R)-/(1R,3S)-3-Amino-cyclohexanecarboxylic acid {5′-chloro-6-[(tetrahydro-pyran-4-ylmethyl)-amino]-[2,4′]bipyridinyl-2′-yl}-amide] | 8.05
CC(C)CCNc1cccc(-c2cc(NC(=O)[C@@H]3CCCNC3)ncc2Cl)n1 [Example 23, (R)-Piperidine-3-carboxylic acid [5′-chloro-6-(3-methyl-butylamino)-[2,4′]bipyridinyl-2′-yl]-amide] | 8.05
COC(=O)N1CCC[C@@H](C(=O)Nc2cc(-c3cccc(NCC4CCOCC4)n3)c(Cl)cn2)C1 [Example 84, (R)-3-{5′-Chloro-6-[(tetrahydro-pyran-4-ylmethyl)-amino]-[2,4′]bipyridinyl-2′-ylcarbamoyl}-piperidine-1-carboxylic acid methyl ester] | 6.38
O=C(Nc1cc(-c2nc(NCC3CCOCC3)ccc2F)c(Cl)cn1)[C@H]1CNCCO1 [Example 158, (R)-Morpholine-2-carboxylic acid {5′-chloro-3-fluoro-6-[(tetrahydro-pyran-4-ylmethyl)-amino]-[2,4′]bipyridinyl-2′-yl}-amide] | 8.30

Same assay, conditions: Cdk9_cyclinT1_IC50, generated using one of the two Cdk9/cyclinT1 assays (IMAP or Alpha Screen), not specified per value; ATP 6 uM

SMILES | pIC50
CC(C)(C)OC(=O)N1CCC[C@@H](C(=O)Nc2cc(-c3cncc(NCC4CCOCC4)c3)c(Cl)cn2)C1 [Example 304, (R)-3-{5′-Chloro-5-[(tetrahydro-pyran-4-ylmethyl)-amino]-[3,4′]bipyridinyl-2′-ylcarbamoyl}-piperidine-1-carboxylic acid tert-butyl ester] | 7.09
